What is called pKi is the Ki on a negative log10 scale, so that one unit is a factor of ten. A high value points to a low Ki.

This note sets out measurements from BindingDB's records for doi:10.1016/s0960-894x(02)00102-6 (Schering-Plough Research Institute, 2002).

A short description of the experiment: Michaelis-Menten constant was determined against Hepatitis C virus NS3 protease and represented as Km.

The structures appear in SMILES notation. pKi: −log10 of the molar value.

In the case of `CCCN(NC(=O)[C@H]1CCCN1C(=O)[C@@H](NC(=O)[C@@H](NC(=O)[C@H](CC(=O)O)NC(=O)[C@H](CCC(=O)O)NC(=O)[C@@H](NC(C)=O)[C@@H](C)O)C(C)C)C(C)C)C(=O)Oc1ccc([N+](=O)[O-])cc1` [Azapeptide], the pKi was 5.10.
